Experimental data reported in patent US11208385B2, “N-substituted imidazole carboxylate compound, preparation method and use” (priority 2017, dated 2021).
Like-named read-outs stand apart in the source and are kept apart here.

Tests used:
SD rats [1] = test system: SD rats
Protocol: 30 male SD rats weighing 250˜300 g were randomly divided into 6 groups, 5 rats for one group. […] Each drug was continually infused to rats via caudal vein, and made the righting reflex abolish, and the abolition of righting reflex was maintained for 1 hour. The wake time after drug withdrawal and the time of full recovery were recorded.

[2] = In vitro degradation experiment in rat liver homogenate (HPLC); assay type: in vitro ADME; settings: for Residual rate at 5 min (%) / Residual rate at 10 min (%) / Residual rate at 20 min (%): rat liver homogenate, 37° C., 50 μg/mL
Protocol: In Vitro Degradation Experiment of Compounds.
Chromatographic condition: mobile phase is methanol: H2O=65:35, and the water phase contains 0.06% ammonium acetate; the flow rate is 1 mL/min; the column temperature is 25° C.
Apparatus: Agilent 1100 Series. Chromatographic column: Aglent Eclipse Plus C18 column, 5 μm 4.6*[…].
The linear range is 1-50 μg/mL.
After fasting for 24 h, male SD rats were treated to collect liver, and the water on the surface of liver was removed using the filter paper, then liver was weighed. […] Then, the homogenate was centrifugated at 10000 g for 20 min at the temperature of 4° C. The supernatant solution was collected, and 14 samples (2 mL) of liver homogenate were taken out and warmed to 37° C. in water bath. Each compound (content 10 mg/mL, 10 μl) was added, respectively, to make a concentration of 50 μg/mL in liver homogenate.
[…] After centrifugation, the supernatant solution was taken out and injected. The concentration of each compound at each time point was detected, that was divided by the initial concentration of each compound, to obtain the degradation ratio of each compound.

SD rats [3] = test system: SD rats; remark: listed apart in the source
Protocol: 150 male SD rats weighing 250˜300 g were randomly divided into 15 groups, 10 rats for one group. […] Drugs were injected to rats via caudal vein, and the injection time was 15 seconds. The abolition of righting reflex for 30 s or above was used as the indicator producing anaesthetic effect.

11-β hydroxylase = molecular target: T1, 11-β hydroxylase (Homo sapiens, UniProt P15538); settings: 11-β hydroxylase versus GABAA receptor; cited from earlier work
T1 sequence (P15538 25-503): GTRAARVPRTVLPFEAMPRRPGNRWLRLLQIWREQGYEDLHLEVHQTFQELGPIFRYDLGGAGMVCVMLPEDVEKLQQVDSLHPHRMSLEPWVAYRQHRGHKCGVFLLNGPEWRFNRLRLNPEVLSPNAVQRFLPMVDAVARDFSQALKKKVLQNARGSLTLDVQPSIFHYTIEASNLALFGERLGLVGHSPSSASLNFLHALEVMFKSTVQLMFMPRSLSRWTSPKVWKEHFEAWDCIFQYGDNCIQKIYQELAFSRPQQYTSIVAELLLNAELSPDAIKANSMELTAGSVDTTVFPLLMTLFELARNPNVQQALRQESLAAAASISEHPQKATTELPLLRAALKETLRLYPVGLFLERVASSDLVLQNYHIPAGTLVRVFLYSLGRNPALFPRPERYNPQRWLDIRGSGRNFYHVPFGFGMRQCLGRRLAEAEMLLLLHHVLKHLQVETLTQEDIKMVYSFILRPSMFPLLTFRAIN

corticosterone = test: Serum corticosterone after dexamethasone suppression and ACTH stimulation in rats (ELISA); settings: ACTH stimulation
Protocol: Male rats (250˜300 g) were chosen as test animals, and the content of corticosterone in serum of rats was measured using ELISA kit and ELISA reader. 65 SD rats were randomly divided into 13 groups, five rats for each group. […] 30 min After administration of ACTH, the concentrations of two cortical hormones in animal body were determined.

[4] = in vivo, 3 mg/kg; cited from earlier work
[5] = after 1 h continual infusion, from recovery of righting reflex to free walk
[6] = after 1 h continual infusion, recovery time of righting reflex after discontinuance
[7] = single iv dose of 2ED50, 10 rats per group
[8] = single iv dose of 2ED50, from abolition to recovery of righting reflex
[9] = single iv dose of 2ED50, from recovery of righting reflex to free walk

SMILES | Residual rate at 5 min (%) [2] [%] | Residual rate at 10 min (%) [2] [%] | Residual rate at 20 min (%) [2] [%] | Time of complete recovery (SD rats [1]; [5]) [min] | Wake time after drug withdrawal (SD rats [1]; [6]) [min] | Incidence rate (%) of muscle tremor (SD rats [1]; continual infusion for 1 h) [%] | Incidence rate (%) of muscle tremor (SD rats [3]; [7]) [%] | Time of keeping anaesthesia (SD rats [3]; [8]) [min] | Time of complete recovery (SD rats [3]; [9]) | also measured
COC(=O)C1(OC(=O)c2cncn2[C@H](C)c2ccccc2)CC1 [CPMM, reference compound] | 0 | 0 | 0 |  |  |  |  |  |  | Incidence rate (%) of muscle tremor (SD rats [1]; male, SD, rat, in vivo): 90%; Time of complete recovery (SD rats [1]; rat, in vivo): 25 ± 9 min; Wake time after drug withdrawal (SD rats [1]; rat, in vivo): 12 ± 7 min; Incidence rate (%) of muscle tremor (SD rats [3]; male, SD, rat, in vivo, iv): 80%; Onset of anaesthesia (SD rats [3]; rat, in vivo): immediately anesthetize the rats; Time of complete recovery (SD rats [3]; rat, in vivo, iv): 2.3 ± 2.1 min; Time of keeping anaesthesia (SD rats [3]; rat, in vivo, iv): 2.5 ± 1.3 min
CCOC(=O)c1cncn1[C@H](C)c1ccccc1 [Etomidate, reference compound] | 97.9 | 95.9 | 95.9 | 85 ± 29 | 18 ± 10 | 60 | 40 | 6.3 ± 2.8 | 7.2 ± 1.7 min | Combining capacity with 11-β hydroxylase relative to GABAA receptor (11-β hydroxylase): 100 times; Decomposition under the action of liver homogenate of rats ([2]; comparative experiment): slowly decomposed; Effect on self-synthesis of adrenal cortical hormones (corticosterone): significantly suppress; Minimum effective concentration producing anaesthetic effect in plasma [4]: 200 ng/mL; Minimum effective concentration to inhibit the synthesis of cortical hormones [4]: 8 ng/mL; Time of maintaining the drug concentration of >8 ng/mL in plasma [4]: 8 h; Time of maintaining the drug concentration of >200 ng/mL in plasma [4]: 8 min; Onset of anaesthesia (SD rats [3]; equivalent dose of anesthesia): immediately anesthetize the rats
COC(=O)OCOC(=O)c1cncn1[C@H](C)c1ccccc1 [Example 1] | 0 | 0 | 0 | 4.1 ± 1.1 | 2.1 ± 1.1 | 0 | 0 | 1.5 ± 0.6 | 1.4 ± 0.5 min | 
CCOC(=O)OCOC(=O)c1cncn1[C@H](C)c1ccccc1 [Example 2] | 0 | 0 | 0 | 3.1 ± 1.8 | 3.1 ± 1.2 | 0 | 0 | 1 ± 0.5 | 2.5 ± 0.4 min | 
CC(C)OC(=O)OCOC(=O)c1cncn1[C@H](C)c1ccccc1 [Example 3] | 0 | 0 | 0 | 1.9 ± 0.9 | 3.4 ± 1.1 | 0 | 0 | 2.1 ± 0.3 | 1.3 ± 0.5 min | 
C[C@H](c1ccccc1)n1cncc1C(=O)OCOC(=O)OC(C)(C)C [Example 4] | 89.3 | 60.1 | 43.6 | 90 ± 37 | 25 ± 24 | 20 | 0 | 8.3 ± 1.4 | 6.1 ± 1.6 min | 
CC(C)COC(=O)OCOC(=O)c1cncn1[C@H](C)c1ccccc1 [Example 5] | 0 | 0 | 0 | 3.9 ± 2.6 | 6.2 ± 1.2 | 10 | 10 | 3 ± 1.1 | 3.3 ± 2.1 min | 
CCC(C)OC(=O)OCOC(=O)c1cncn1[C@H](C)c1ccccc1 (stereo partly shown) [Example 6] | 4.7 | 0.9 | 0 | 2.1 ± 1.5 | 3.1 ± 1.9 | 0 | 0 | 2.4 ± 0.6 | 1.7 ± 0.4 min | 
CC(C)OC(=O)OC(C)OC(=O)c1cncn1[C@H](C)c1ccccc1 (stereo partly shown) [Example 8] | 2.1 | 0 | 0 | 1.8 ± 0.6 | 4.9 ± 2.7 | 10 | 10 | 2.3 ± 0.3 | 1.9 ± 1^ min | 
C[C@H](c1ccccc1)n1cncc1C(=O)OCOC(=O)OC(C(F)(F)F)C(F)(F)F [Example 9] | 72.1 | 50.3 | 39.8 | 55 ± 38 | 20 ± 14 | 0 | 0 | 8.1 ± 2.3 | 7.2 ± 2.9 min | 
CCC(C)OC(=O)OCOC(=O)c1cncn1[C@H](C)c1ccccc1.Cl (stereo partly shown) [Example 10] |  |  |  |  |  |  | 0 | 2.5 ± 0.7 | 2.0 ± 0.9 min | 
CCC(C)OC(=O)OCOC(=O)c1cncn1[C@H](C)c1ccccc1 (stereo partly shown) [Example 11] |  |  |  |  |  |  | 0 | 2.8 ± 1.1 | 2.1 ± 1.2 min | 
CC(C)OC(=O)OCOC(=O)c1cncn1[C@H](C)c1ccccc1 [Example 12] |  |  |  |  |  |  | 0 | 2.2 ± 0.5 | 1.2 ± 0.6 min | 
CC[C@@H](C)OC(=O)OCOC(=O)c1cncn1[C@H](C)c1ccccc1 [Example 16] | 3.2 | 0 | 0 | 2.1 ± 0.5 | 4.5 ± 2.2 | 0 | 0 | 3.1 ± 0.4 | 2.1 ± 0.5 min | 
CC[C@H](C)OC(=O)OCOC(=O)c1cncn1[C@H](C)c1ccccc1 [Example 17] | 3.1 | 0 | 0 |  |  |  | 0 | 2.2 ± 0.3 | 1.6 ± 0.2 min | 
CCC(OC(=O)OC(C)C)OC(=O)c1cncn1[C@H](C)c1ccccc1 (stereo partly shown) [Example 28] | 5.3 | 0 | 0 | 22.5 ± 4.8 | 10.1 ± 2.3 | 0 | 0 | 3.5 ± 1.1 | 2.1 ± 0.5 min | 
COC(=O)CCOC(=O)c1cncn1[C@H](C)c1ccccc1 [MOC-ET, reference compound] | 0 | 0 | 0 |  |  |  |  |  |  | Cortex function of test animals after drug withdrawal (corticosterone; 30 min after drug withdrawal): obviously recovered
